One experiment relates to CSPG4. Briefly: Quantitative PCR gene expression in follicle dermal papilla cells: CSPG4. The experiment is classed as cell-based, human. As to conditions: Example 3: 0.25% POs-Ca (R) or CaCl2 of equivalent calcium, DMEM, 37° C., 5 hours; Dunnett, n=6.
The next experiment concerns VEGF. Briefly: Expression rate of VEGF among acidic saccharide salts, quantitative PCR (Example 6). It is filed as cell-based, human. The note with it: Example 6: solutions (b)-(h) of b288 mixed 1:9 with DMEM, GAPDH reference, mean of 4 PCR assays, dihydrate. On the procedure:
(§1) (1) 500 μl of a special medium in which 2×10^4 cells/ml of follicle dermal papilla cells were suspended was dispensed into a type I collagen-coated 24-well cell culture plate (Corning), and cultured at a cell density of 5×10^3 cells/cm^2 at 37° C. for 72 hours. […] Oji Cornstarch Co., Ltd.), (f) a 2.5% (w/v) aqueous solution of a phosphorylated oligosaccharide magnesium salt (POs-Mg; […] (3) Each of the solutions (a) to (c) was mixed with DMEM high glucose (Sigma, USA) at a ratio of 1:9. (4) Following the procedures (4) to (6) in Example 2, mRNA was extracted from the cells, cDNA was prepared, and then the expression levels of the VEGF, FGF-7, and GAPDH genes were quantified by quantitative PCR. (7) Using GAPDH as a reference gene, a comparative analysis of expression levels was performed with the analysis software (Bio-Rad CFX Manager 3.0) included in CFX96Touch. The expression levels were calculated under the default conditions of the software.

Another experiment concerns versican. The experiment in a line: Quantitative PCR gene expression in follicle dermal papilla cells: versican. As to conditions: Example 3: 0.25% POs-Ca (R) or CaCl2 of equivalent calcium, DMEM, 37° C., 5 hours; Dunnett, n=6. The experiment is classed as cell-based, human.
The next experiment relates to FGF-7. Briefly: Expression rate of FGF-7 among acidic saccharide salts, quantitative PCR (Example 6). It is filed as cell-based, human. The note with it: Example 6: solutions (b)-(h) of b288 mixed 1:9 with DMEM, GAPDH reference, mean of 4 PCR assays, dihydrate. Here is the method:
as §1

Experiment [1] relates to human follicle dermal papilla cells. The experiment in a line: Follicle dermal papilla cell proliferation, WST-1 (Example 1). It is filed as cell-based. On the procedure: A strain (Lot. 3092504.12) sold by PromoCell (Germany) was used as human follicle dermal papilla cells. The cells were cultured in a CO2 incubator at 37° C., using a special medium for follicle dermal papilla cells (PromoCell), unless otherwise indicated. Cell subculturing was performed as follows: cells were seeded at 5000 to 10000 cells/cm^2 in an uncoated dish, and when the cells reached subconfluent, they were treated with trypsin-EDTA (0.03%) and detached, and then re-seeded. The trypsin-EDTA treatment allows complete detachment of the cells by incubation at 37° C. for nearly 10 minutes, with a high survival rate. The medium was replaced about once every 3 days.
(1) Human follicle dermal papilla cells were seeded in a 96-well collagen I-coated plate (BD Biocoat Collagen I 96-well clear plate) at 1.6×10^3 cells/well and cultured at 37° C. for 24 hours. Cells were not seeded in two wells on the plate for blanks.
(2) Solutions of the compositions shown in the table were prepared in a concentration series starting from a 10% (w/v) aqueous solution of POs-Ca (R), a 1.84% (w/v) aqueous solution of CaCl2.2H2O, or a 12.9% (w/v) aqueous solution of G1P-Ca.
(3) The above-described aqueous solutions and the special medium were mixed at a ratio of 1:9 to prepare media having five different concentrations for each calcium species with a final concentration of 1/10 shown in Table 1. The media in each of the columns of Table 1 have the same calcium concentration. […]
(7) Absorbance at 440 nm was measured for each well, using a fluorescence microplate reader (Varioskan Flash 2.4; Thermo Fisher Scientific, US).
(8) The value obtained by subtracting the absorbance of the blank wells from the absorbance of the well of the sample was defined as the value of the relative amount of cells of the sample in each well. The degree of cell proliferation relative to the control was calculated by dividing the value of the relative amount of cells in each well, by the average value of the relative amount of cells in the control medium.
In general terms: Tetrazolium assays rely on reduction of a dye to a coloured formazan, in cell work by metabolically active cells.

Description for CSPG4: (§2) (1) 500 μl of a special medium in which 4×10^4 cells/ml of follicle dermal papilla cells were suspended was dispensed into a type I collagen-coated 24-well cell culture plate (Corning), and cultured at a cell density of 1.0×10^4 cells/cm^2 at 37° C. for 42 hours. (2) (a) Water (control), (b) a 2.5% (w/v) aqueous solution of POs-Ca (R), and (c) a 0.457% aqueous solution of CaCl2 (having an equivalent amount of calcium to that of (b)) were prepared. Each of the solutions (a) to (c) was mixed with DMEM high glucose (Sigma, USA) at a ratio of 1:9. […]
(§3) (6) 0.5 μl of each of cDNA solutions diluted 2-fold with water, 1 μl of a solution containing 4 μM of each of primers 1 and 2 for each of the genes shown in Table 2, 5 μl of SYBR Premix Ex Taq II (Takara), and 3.5 μl of water were added, and quantitative PCR was performed on each of the genes. […] Fluorescence intensity after each cycle was measured.
(§4) (7) Using PGK1 and GAPDH as reference genes, a comparative analysis of expression levels was performed with the analysis software (Bio-Rad CFX Manager 3.0) included in CFX96Touch. Relative expression levels were calculated under the default conditions of the software.
(§5) (8) The average value of calculated expression levels was determined for the six samples derived from the cells treated under the respective conditions, and defined as the expression level relative to the control.
Description for versican: as §2, §3, §4, §5

For `O.O.[Ca+2].[Cl-].[Cl-]` [CaCl2, calcium chloride dihydrate], the “expression of CSPG4 gene compared to control” value in the experiment with CSPG4 is “significant increases in the expression of genes were not observed”. The “VEGF, relative values of the expression levels based on the control as 1” value in the experiment on VEGF is reported as 0.80; in the experiment with VEGF (listed as calcium chloride), “either comparable to or below the control”. Besides, the “expression of versican gene compared to control” value with versican is on record as “significantly decreased”. Also, the entries for the “FGF7, relative values of the expression levels based on the control as 1” value in the experiment on FGF-7 and in the experiment on FGF-7 (listed as calcium chloride) were 1.02 and “either comparable to or below the control”, respectively. For the same compound, in experiment [1] (0.0625% and 0.12% POs-Ca (R), 0.0115% and 0.023% calcium chloride), the “proliferation rate tendency at low concentrations” value is listed as “tended to decrease”. The “increase of cell proliferation relative to the control” value in experiment [1] (0.25% POs-Ca (R) or calcium chloride with equivalent calcium, 3 days, WST-1) is reported as 5.6%. For the same compound, in experiment [1] (0.5% and 1.0% POs-Ca (R), 0.092% and 0.184% calcium chloride), the “proliferation rate at high concentrations” value is on record as “tended to increase”.

The record behind these values is US10543159B2, “Hair papilla cell activator” (Ezaki Glico Co., Ltd., priority 2014, dated 2020).
